Columns and labels:
mGluR4 [1] = molecular target: T1, mGluR4 (Homo sapiens, UniProt Q14833); experiment: Fluorescent Imaging Plate Reader (FLIPR) assay for mGluR4 potentiators; assay type: cell-based; parameters: expressed in transfected cells; conditions: for EC50: inflection point of curve, potentiation of EC10 concentration of L-AP4 (30 nM), read-out: mGluR4 FLIPR Potency; for Emax: maximal activity relative to response with saturating concentration (10 uM) of agonist L-AP4, read-out: mGluR4 FLIPR % Max Efficacy
Description: Fluorescent Imaging Plate Reader (FLIPR) Assay for mGluR4 Potentiators Cells are grown in Corning […] cm^2 flasks in DMEM growth media at 37° C. and 5% CO2. Growth media contains: […] The day prior to the experiment the cells were plated in growth medium (minus glutamine) at 50K cells/well into Becton-Dickinson 384-well PDL-coated plates using a Labsystems Multidrop (0.1 ml/well). The cells are grown overnight at 37° C. and 6% CO2. The following day, the cells are washed with Assay Buffer at 37° C. using a Skatron EMBLA cell washer (3×100 μl, aspiration 3 mm from bottom will leave 30 μl of buffer in each well). Assay buffer is Hanks balanced salt solution with 20 mM HEPES, 2.5 mM probenecid and 0.1% BSA. Fluorescent dye, 30 μl of the diluted Fluo-4-AM, is added to each well of the plate. […] The assay plates are placed back into the 6% CO2 incubator and incubated at 37° C. for 60 min. The 384-well plates are washed with Assay Buffer at 37° C. on using a cell washer (3×100 μl, aspiration 3 mm from bottom, will leave 30 μl of buffer in each well). The experimental run is initiated and after 30 sec a dose of test compound is applied. The fluorescent response elicited by test compound is monitored for 5 min, any positive response detected at this stage is attributed to agonist properties of the test compound. […] Controls for the assay include a no compound control, a positive control which is a saturating concentration, 10 uM, of the agonist L-AP4. A 10 point dose response, with either 2-fold or 3-fold dilution steps, is performed and curve fitting algorithms, suitable for a sigmoidal dose response relationship, are used to fit the data. The inflection point of the curve provides a measure of compound potency. A comparison of the maximal level of activity achieved for a test compound, relative to the response achieved with a saturating concentration of the agonist L-AP4 provides a measure of compound efficacy.

mGluR4 [2] = molecular target: T1, mGluR4; experiment: mGluR4 binding assay (filtration, [3H] radiotracer displacement, in presence of L-AP4); parameters: expressed in transfected cells; host or cells: CHO cells; conditions: membranes from CHO cells expressing human mGluR4; 20 uM L-AP4; 7 nM radiotracer; 1 hour at room temperature
Description: Membranes were prepared from CHO cells expressing the human mGluR4 receptor. Cells were harvested using trypsin and then washed in assay buffer, assay buffer contains 50 mM HEPES, 1 mM EDTA and protease inhibitors (Boehringer Mannheim catalog #1 836 170). Harvested cells were pelleted by centrifugation and stored at −80° C. for a minimum of 12 hours. Cells were resuspended in assay buffer and lysed by a polytron, a low speed spin, 2000×g for 10 min, was used to recover unbroken cells for additional treatment using the polytron. The cleared supernatant from the low speed spins was subjected to a high speed spin, 96,000×g for 1 hour. The membrane pellet from the high speed spin was resuspended in assay buffer and used in the mGluR4 binding assay.
The binding assay follows a standard filtration binding paradigm. The binding buffer consists of 20 mM HEPES, 100 mM NaCl and 3 mM MgCl2, the pH of the buffer is 7.4. The assay is performed in a 96-well format with each well containing test compound, 25 to 50 ug of membrane protein, 20 uM L-AP4, and 7 nM radiotracer, [^3H]-N-[3-Chloro-4-(4-methyl-1,3-dioxo-1,3-dihydro-2H-isoindol-2-yl)phenyl]pyridine-2-carboxamide, which is disclosed in commonly owned U.S. patent application docket no. MRL-NOP-00030-US-PSP, filed contemporaneously with this application.
The binding reaction is incubated at room temperature for 1 hour, and then is passed through GF/B filter that was presoaked with 0.5% PEI. The cell membranes are collected on the filter and then washed five times with ˜5 ml ice cold binding buffer that contains 0.01% BSA. The washed filter plate is dried for 30 minutes at 37° C., scintillation fluid is added, and the amount of filter bound radioactivity is determined using a TopCount instrument. Total binding is determined in the absence of any test compound, but in the presence of the DMSO concentration that would result from the addition of test compound. To determine the level of non-specific binding for the radiotracer [^3H]-N-[3-Chloro-4-(4-methyl-1,3-dioxo-1,3-dihydro-2H-isoindol-2-yl)phenyl]pyridine-2-carboxamide, 5 uM of unlabeled […]N-[3-Chloro-4-(4-methyl-1,3-dioxo-1,3-dihydro-2H-isoindol-2-yl)phenyl]pyridine-2-carboxamide, is added to determine the level of non-specific binding.
A 10-point dose response, with either 2-fold or 3-fold dilution steps, is performed and curve fitting algorithms, suitable for a sigmoidal dose response relationship, are used to fit the data. The inflection point of the curve, or IC50, provides a measure of the affinity of a test compound for the mGluR4 receptor.

T1 sequence (Q14833 33-912): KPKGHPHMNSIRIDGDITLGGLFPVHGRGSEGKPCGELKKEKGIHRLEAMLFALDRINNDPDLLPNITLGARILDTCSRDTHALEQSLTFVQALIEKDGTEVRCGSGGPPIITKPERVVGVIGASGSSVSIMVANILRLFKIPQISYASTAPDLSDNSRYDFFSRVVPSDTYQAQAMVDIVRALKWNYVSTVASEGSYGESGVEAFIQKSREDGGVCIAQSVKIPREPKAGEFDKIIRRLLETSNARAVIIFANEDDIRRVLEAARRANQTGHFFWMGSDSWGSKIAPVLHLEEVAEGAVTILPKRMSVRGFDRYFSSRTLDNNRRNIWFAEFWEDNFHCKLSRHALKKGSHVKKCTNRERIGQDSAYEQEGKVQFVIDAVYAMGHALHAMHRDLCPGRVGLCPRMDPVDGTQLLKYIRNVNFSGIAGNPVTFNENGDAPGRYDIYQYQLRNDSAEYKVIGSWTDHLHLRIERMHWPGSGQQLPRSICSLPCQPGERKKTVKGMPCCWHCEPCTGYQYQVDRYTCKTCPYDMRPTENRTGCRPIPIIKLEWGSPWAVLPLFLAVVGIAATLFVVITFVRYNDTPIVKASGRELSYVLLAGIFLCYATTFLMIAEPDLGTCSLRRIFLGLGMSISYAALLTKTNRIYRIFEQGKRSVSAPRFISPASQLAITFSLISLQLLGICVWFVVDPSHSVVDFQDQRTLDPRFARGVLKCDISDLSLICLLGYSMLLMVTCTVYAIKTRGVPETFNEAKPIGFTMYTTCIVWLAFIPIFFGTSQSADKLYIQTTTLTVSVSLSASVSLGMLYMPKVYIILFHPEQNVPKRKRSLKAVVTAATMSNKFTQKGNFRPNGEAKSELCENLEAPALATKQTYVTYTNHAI

SMILES | EC50 (mGluR4 [1]) [nM] | Emax (mGluR4 [1]) [%] | IC50 (mGluR4 [2]) [nM]
O=C(Nc1ccc(S(=O)(=O)Nc2ccccc2Cl)cc1)c1ccccn1 [Example 1, N-(4-{[(2-Chlorophenyl)amino]sulfonyl}phenyl)pyridine-2-carboxamide] | 162 | 111 | 33
COc1cc(NC(=O)c2ccccn2)ccc1S(=O)(=O)Nc1ccccc1 [Example 6] | 3940 | 70 | 6080
Cc1ccc(NS(=O)(=O)c2ccc(NC(=O)c3ccccn3)cc2)cc1 [Example 18] | 1350 | 93 | 1100

Second part, the molecule after the results:

EC50 (mGluR4 [1]) [nM] | Emax (mGluR4 [1]) [%] | IC50 (mGluR4 [2]) [nM] | SMILES
134 | 110 | 141 | O=C(Nc1ccc(S(=O)(=O)Nc2ccccc2Br)cc1)c1ccccn1 [Example 30]
480 | 124 | 182 | O=C(Nc1ccc(S(=O)(=O)Nc2ccccc2Cc2ccccc2)cc1)c1ccccn1 [Example 41]
